Experimental data: ChEMBL document CHEMBL1201862, “PubChem BioAssay data set” (2004)
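Method: 48-hour compound exposure of cells in 96-well plates, five concentrations, linear interpolation of endpoints. At the GI50, growth is halved.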 Calls of active or inactive are those of the source. Cut-off read from the data, not from the text of the source: active = GI50 up to about 1.1 µM and inactive = higher.

Key:
Experiment in all cases: NCI-60 cell line screen, 48 h
ACHN = system: ACHN
SNB-19 = system: SNB-19
EKVX = system: EKVX
OVCAR-8 = system: OVCAR-8
A549 = system: A549
SF-268 = system: SF-268
M14 = system: M14
TK-10 = system: TK-10
SW-620 = system: SW-620
SF-539 = system: SF-539
SK-MEL-5 = system: SK-MEL-5
OVCAR-3 = system: OVCAR-3
KM12 = system: KM12
SK-MEL-28 = system: SK-MEL-28
U-251 = system: U-251
SR = system: SR
SK-MEL-2 = system: SK-MEL-2
OVCAR-5 = system: OVCAR-5
HCT-15 = system: HCT-15

SMILES | GI50 (ACHN) | GI50 (SNB-19) | GI50 (EKVX) | GI50 (OVCAR-8) | GI50 (A549) | GI50 (SF-268) | GI50 (M14) | GI50 (TK-10) | GI50 (SW-620) | GI50 (SF-539) | GI50 (SK-MEL-5) | GI50 (OVCAR-3) | GI50 (KM12) | GI50 (SK-MEL-28) | GI50 (U-251) | GI50 (SR) | GI50 (SK-MEL-2) | GI50 (OVCAR-5) | GI50 (HCT-15)
O=C(COC(=O)c1cccc2c(=O)c3ccccc3[nH]c12)Nc1ccc(C(=O)O)cc1 | > 100 µM (inactive) | > 100 µM (inactive) | > 100 µM (inactive) | 78.7 µM (inactive) | > 100 µM (inactive) | > 100 µM (inactive) | > 100 µM (inactive) | > 10 µM (inactive) | > 100 µM (inactive) | > 100 µM (inactive) | > 100 µM (inactive) | 50 µM (inactive) | 47.2 µM (inactive) | > 100 µM (inactive) | > 100 µM (inactive) | 30.8 µM (inactive) | – | – | –
CCN(CC)CCNC(=O)c1nn(C)c(=S)[nH]c1=S | > 100 µM (inactive) | > 100 µM (inactive) | > 100 µM (inactive) | > 100 µM (inactive) | > 100 µM (inactive) | – | > 100 µM (inactive) | > 100 µM (inactive) | > 100 µM (inactive) | > 100 µM (inactive) | > 100 µM (inactive) | > 100 µM (inactive) | > 100 µM (inactive) | > 100 µM (inactive) | > 100 µM (inactive) | > 100 µM (inactive) | > 100 µM (inactive) | > 100 µM (inactive) | > 100 µM
CCCCCC/C=C/CCCCCCCc1cccc(O)c1C(=O)O | 85.5 µM (inactive) | 34.7 µM (inactive) | 32.7 µM (inactive) | 50.8 µM (inactive) | 50.4 µM (inactive) | 26.9 µM (inactive) | > 100 µM (inactive) | 70.3 µM (inactive) | 62.4 µM (inactive) | 59.4 µM (inactive) | – | 42.3 µM (inactive) | > 100 µM (inactive) | 83 µM (inactive) | 27.3 µM (inactive) | > 100 µM (inactive) | > 100 µM (inactive) | > 100 µM (inactive) | 38.4 µM
O=C1C2=C(C(c3ccccc3)=C1c1ccccc1)c1ccccc1C1(c3ccccc3)C2=C(O)C(c2ccccc2)=C1c1ccccc1 (stereo not given) | > 100 µM (inactive) | – | > 100 µM (inactive) | > 100 µM (inactive) | > 100 µM (inactive) | > 100 µM (inactive) | > 100 µM (inactive) | > 100 µM (inactive) | > 100 µM (inactive) | > 100 µM (inactive) | > 100 µM (inactive) | > 100 µM (inactive) | > 100 µM (inactive) | > 100 µM (inactive) | > 100 µM (inactive) | > 100 µM (inactive) | > 100 µM (inactive) | > 100 µM (inactive) | > 100 µM
NCc1cc(O)c(O)c(O)c1 | > 100 µM (inactive) | > 100 µM (inactive) | > 100 µM (inactive) | > 100 µM (inactive) | > 100 µM (inactive) | > 100 µM (inactive) | > 100 µM (inactive) | > 100 µM (inactive) | > 100 µM (inactive) | – | > 100 µM (inactive) | > 100 µM (inactive) | > 100 µM (inactive) | > 100 µM (inactive) | > 100 µM (inactive) | 91.2 µM (inactive) | > 100 µM (inactive) | > 100 µM (inactive) | > 100 µM
CC(C)(C)CC(C)(C)c1cc2c(O)c(c1)Cc1cc(C(C)(C)CC(C)(C)C)cc(c1O)Cc1cc(C(C)(C)CC(C)(C)C)cc(c1O)Cc1cc(C(C)(C)CC(C)(C)C)cc(c1O)Cc1cc(C(C)(C)CC(C)(C)C)cc(c1O)Cc1cc(C(C)(C)CC(C)(C)C)cc(c1O)C2 | > 100 µM (inactive) | > 100 µM (inactive) | > 100 µM (inactive) | > 100 µM (inactive) | > 100 µM (inactive) | > 100 µM (inactive) | > 100 µM (inactive) | > 100 µM (inactive) | > 100 µM (inactive) | > 100 µM (inactive) | > 100 µM (inactive) | > 100 µM (inactive) | > 100 µM (inactive) | > 100 µM (inactive) | > 100 µM (inactive) | – | > 100 µM (inactive) | > 100 µM (inactive) | > 100 µM
COc1ccc(C2=NN(C(C)=O)c3nc4ccccc4nc3O2)cc1 | 24.4 µM (inactive) | 27 µM (inactive) | 45.6 µM (inactive) | 37.3 µM (inactive) | 40.6 µM (inactive) | 31.3 µM (inactive) | – | 21.3 µM (inactive) | > 100 µM (inactive) | 17.8 µM (inactive) | – | > 100 µM (inactive) | > 100 µM (inactive) | 92.3 µM (inactive) | 18.9 µM (inactive) | > 100 µM (inactive) | 8.02 µM (inactive) | – | 46.6 µM
COC(=O)C1=C(C(=O)OC)C23CC4CCC2(C(=O)C1O3)C4(C)C (stereo not given) | > 100 µM (inactive) | > 100 µM (inactive) | – | > 100 µM (inactive) | > 100 µM (inactive) | 94.4 µM (inactive) | > 100 µM (inactive) | > 100 µM (inactive) | 78.3 µM (inactive) | > 100 µM (inactive) | > 100 µM (inactive) | > 100 µM (inactive) | > 100 µM (inactive) | > 100 µM (inactive) | > 100 µM (inactive) | 26.7 µM (inactive) | > 100 µM (inactive) | > 100 µM (inactive) | > 100 µM
CS(=O)(=O)Sc1ccc(Cl)cc1 | – | 3.4 µM (inactive) | 3.82 µM (inactive) | 7.87 µM (inactive) | 3.75 µM (inactive) | 1.63 µM (inactive) | 12.8 µM (inactive) | 14 µM (inactive) | 12.7 µM (inactive) | 2.55 µM (inactive) | 7.83 µM (inactive) | 5.87 µM (inactive) | 7.19 µM (inactive) | 11.5 µM (inactive) | 2.84 µM (inactive) | 3.59 µM (inactive) | 6.84 µM (inactive) | 17.6 µM (inactive) | 10.1 µM
CCOC(=O)c1ccc(N2C(=O)/C(=C\OC)c3ccccc3C2=O)cc1 | 42.4 µM (inactive) | 34 µM (inactive) | > 100 µM (inactive) | 20 µM (inactive) | 43.3 µM (inactive) | 27.7 µM (inactive) | – | 15.1 µM (inactive) | 33.8 µM (inactive) | 32.4 µM (inactive) | 70.8 µM (inactive) | 36.6 µM (inactive) | 42.6 µM (inactive) | 24.7 µM (inactive) | 22.7 µM (inactive) | 30.3 µM (inactive) | 23 µM (inactive) | 43.1 µM (inactive) | 36 µM
Cc1c(C(=O)C/C(=N/NC(=O)c2ccccc2)C(=O)Nc2ccc(Cl)cc2)[n+]([O-])c2ccccc2[n+]1[O-] | > 100 µM (inactive) | 88.3 µM (inactive) | – | > 100 µM (inactive) | > 100 µM (inactive) | > 100 µM (inactive) | > 100 µM (inactive) | > 100 µM (inactive) | 46.2 µM (inactive) | > 100 µM (inactive) | > 100 µM (inactive) | 41.6 µM (inactive) | > 100 µM (inactive) | > 100 µM (inactive) | > 100 µM (inactive) | 63.8 µM (inactive) | > 100 µM (inactive) | 79.3 µM (inactive) | 68.5 µM
N#CC(NNC(=O)c1ccccc1O)c1ccccc1 (stereo not given) | 0.479 µM (active) | – | – | 2.81 µM (inactive) | 0.423 µM (active) | 0.422 µM (active) | 0.942 µM (active) | 4.3 µM (inactive) | 8.02 µM (inactive) | 3.33 µM (inactive) | 16.1 µM (inactive) | 3.12 µM (inactive) | 1.61 µM (inactive) | > 100 µM (inactive) | 0.486 µM (active) | 0.689 µM (active) | 2.55 µM (inactive) | 22.1 µM (inactive) | 2.73 µM
Cc1cccc2c(=O)c3cccc([C@H](C)C(=O)O)c3oc12 | > 100 µM (inactive) | > 100 µM (inactive) | > 100 µM (inactive) | > 100 µM (inactive) | > 100 µM (inactive) | > 100 µM (inactive) | > 100 µM (inactive) | > 100 µM (inactive) | > 100 µM (inactive) | > 100 µM (inactive) | > 100 µM (inactive) | > 100 µM (inactive) | > 100 µM (inactive) | > 100 µM (inactive) | > 100 µM (inactive) | > 100 µM (inactive) | > 100 µM (inactive) | – | > 100 µM
O=P(Oc1ccc2ccccc2c1)(N1CC1)N1CC1 | 2.61 µM (inactive) | 26.9 µM (inactive) | 13.6 µM (inactive) | 59.2 µM (inactive) | 5.62 µM (inactive) | 2.15 µM (inactive) | 11.4 µM (inactive) | 67.9 µM (inactive) | > 100 µM (inactive) | 17.6 µM (inactive) | – | 65.8 µM (inactive) | > 100 µM (inactive) | 28.4 µM (inactive) | 27.6 µM (inactive) | 3.13 µM (inactive) | 68.1 µM (inactive) | 34 µM (inactive) | > 100 µM
CCOC(=O)NC(=O)c1cn(CCN2CCN(C(=O)CCCCCCCCCCC(=O)N3CCN(CCn4cc(C(=O)NC(=O)OCC)c(=O)[nH]c4=O)CC3)CC2)c(=O)[nH]c1=O | > 100 µM (inactive) | > 100 µM (inactive) | – | > 100 µM (inactive) | > 100 µM (inactive) | > 100 µM (inactive) | > 100 µM (inactive) | > 100 µM (inactive) | > 100 µM (inactive) | > 100 µM (inactive) | > 100 µM (inactive) | > 100 µM (inactive) | > 100 µM (inactive) | > 100 µM (inactive) | > 100 µM (inactive) | > 100 µM (inactive) | – | 51.6 µM (inactive) | –
O=C(Nc1ccccc1)N1C(c2ccccc2)=N[C@@H](c2ccccc2)[C@@H]1c1ccccc1 | 15.3 µM (inactive) | 31.6 µM (inactive) | 43.7 µM (inactive) | 22.8 µM (inactive) | 21.2 µM (inactive) | 22.3 µM (inactive) | 14.6 µM (inactive) | 31.3 µM (inactive) | 18.8 µM (inactive) | 18.6 µM (inactive) | 13.6 µM (inactive) | 22.9 µM (inactive) | 18.3 µM (inactive) | 15.6 µM (inactive) | – | 14.8 µM (inactive) | – | 19.3 µM (inactive) | 23.8 µM
